Source: patent US11926619B2, “Certain pladienolide compounds and methods of use” (EISAI R&D MANAGEMENT CO., LTD., priority 2018, dated 2024)

How the values were obtained:
Format in all cases: cell-based
[1] = system: Panc 05.04 cells (pancreatic cancer cells; Q699H and K700E mutations in SF3B1); assay: Cell viability assay (CellTiter-Glo, 72 hr), Panc 05.04 cells; conditions: Panc 05.04 cells (mutant SF3B1); for Emax: maximum achievable response in tested dose range, negative value = cellular lethality, read-out: Panc 05.04 (mt SF3B1 cells) Emax (%); for GI50: read-out: Panc 05.04 (mt SF3B1 cells), GI50
Method: (§1) Cells (WiDr and Panc05.04 obtained from ATCC) were seeded in 96-well plates, with 2000 cells/100 μL/well, and incubated overnight. Spent media was removed, and fresh media containing 9 different concentrations of compound (100 μL/well) were added, with DMSO concentration from compound stock solution adjusted to be 0.1%. Each compound treatment was done in duplicate or triplicate at each concentration.
(§2) Another plate with cells seeded was dedicated as a time zero (Tz) plate, to which was added 0.1% DMSO in media (100 μL/well) followed by CellTiter-Glo® reagent (Promega Corporation, Madison, Wisconsin) (50 μL/well) for ATP measurement as a surrogate of cell viability. Average value from measurement of multiple wells of this plate is used as Tz. Compound-treated plates were incubated for 72 hr at 37° C. Then, CellTiter-Glo® reagent (50 μL/well) was added and ATP was measured. Average value from measurement of the duplicate or triplicate compound-treated wells is used as Ti, and seeded plates with medium having 0.1% DMSO without compound is used as control growth (C).
(§3) Percentage growth inhibition/Percentage viability was calculated as:
(§4) [(Ti−Tz)/(C−Tz)]×100 for concentrations for which Ti>/=Tz
(§5) [(Ti−Tz)/Tz]×100 for concentrations for which Ti<Tz.
(§6) *time zero (Tz), control growth (C), and test growth in the presence of compound (Ti) Percentage growth inhibition/Percentage viability are plotted versus compound concentration to determine Emax.
(§7) Emax refers to the maximum achievable response to a compound in a tested dose range, with a negative value indicating cellular lethality. A larger negative Emax value indicates greater cellular lethality for a particular compound.

[2] = system: WiDr-R cells (colon cancer cells; chemically-induced SF3B1 R1074H mutant); assay: Cell viability assay (CellTiter-Glo, 72 hr), resistant WiDr-R cells (counter-screen); conditions: WiDr-R cells (SF3B1 R1074H mutation, resistant); read-out: WiDr-R GI50
Method: as §1, §2, §3, §4, §5, §6, §7
The counter-screening of compounds in this viability assay with a “resistant” WiDr-R cell line may indicate whether these compounds have off-target effect(s).

[3] = system: WiDr cells (colon cancer cells; wildtype SF3B1); assay: Cell viability assay (CellTiter-Glo, 72 hr), WiDr cells; conditions: Homo sapiens; WiDr cells (wildtype SF3B1); read-out: WiDr GI50
Method: as §1, §2, §3, §4, §5, §6
Emax refers to the maximum achievable response to a compound in a tested dose range, with a negative value indicating cellular lethality. A larger negative Emax value indicates greater cellular lethality for a particular compound. […]

SMILES | Emax [1] | GI50 [1] | GI50 [2] | GI50 [3]
C/C(=C\C=C\[C@@H](C)COC(=O)N1CC[C@H](F)C1)[C@H]1OC(=O)C[C@H](O)CC[C@@](C)(O)[C@@H](OC(=O)N2CCN(C)CC2)/C=C/[C@@H]1C | -90.2% | 0.00486 µM | > 1 µM | 0.00284 µM
CC(=O)O[C@H]1/C=C/[C@H](C)[C@@H](/C(C)=C/C=C/[C@@H](C)COC(=O)N2CCOCC2)OC(=O)C[C@H](O)CC[C@@]1(C)O |  | 0.0155 µM | > 10 µM | 0.0913 µM
CC[C@H](O)[C@@H](C)C(=O)OC[C@H](C)/C=C/C=C(\C)[C@H]1OC(=O)C[C@H](O)CC[C@@](C)(O)[C@@H](OC(C)=O)/C=C/[C@@H]1C | -90.5% | 0.0311 µM | > 10 µM | 0.0428 µM
C/C(=C\C=C\[C@@H](C)c1ccccn1)[C@H]1OC(=O)CCCCC[C@@H](OC(=O)N2CCN(C3CCCCCC3)CC2)/C=C/[C@@H]1C | -40.6% | 0.883 µM | 3.82 µM | 0.258 µM
C/C(=C\C=C\[C@@H](C)COC(=O)N1CCC[C@H]1C(N)=O)[C@H]1OC(=O)C[C@H](O)CC[C@@](C)(O)[C@@H](OC(=O)N2CCN(C3CCCCCC3)CC2)/C=C/[C@@H]1C | -92.9% | 0.0402 µM | > 1 µM | 0.0328 µM
C/C(=C\C=C\[C@@H](C)COC(=O)N1[C@H](C)CC[C@H]1C)[C@H]1OC(=O)C[C@H](O)CC[C@@](C)(O)[C@@H](OC(=O)N2CCN(C3CCCCCC3)CC2)/C=C/[C@@H]1C | -68.9% | 0.00452 µM | 0.0148 µM | 0.00239 µM
C/C(=C\C=C\[C@@H](C)COC(=O)N1CCCC1C(C)O)[C@H]1OC(=O)C[C@H](O)CC[C@@](C)(O)[C@@H](OC(=O)N2CCN(C)CC2)/C=C/[C@@H]1C (some centres unmarked) | -85.4% | 0.0101 µM | > 1 µM | 0.0147 µM
C/C(=C\C=C\[C@@H](C)COC(=O)N1C[C@H](O)[C@@H](O)C1)[C@H]1OC(=O)C[C@H](O)CC[C@@](C)(O)[C@@H](OC(=O)N2CCN(C3CCCCCC3)CC2)/C=C/[C@@H]1C | -95.4% | 0.0746 µM | > 1 µM | 0.294 µM
CC(=O)O[C@H]1/C=C/[C@H](C)[C@@H](/C(C)=C/C=C/[C@@H](C)COC(N)=O)OC(=O)C[C@H](O)CC[C@@]1(C)O | 40.1% | 2.09 µM | > 10 µM | 8.13 µM
C/C(=C\C=C\[C@@H](C)COC(=O)N1CC[C@@H](O)C1)[C@H]1OC(=O)C[C@H](O)CC[C@@](C)(O)[C@@H](OC(=O)N2CCN(C)CC2)/C=C/[C@@H]1C | -94.8% | 0.0881 µM | > 1 µM | 0.0899 µM
C/C(=C\C=C\[C@@H](C)CO)[C@H]1OC(=O)C[C@H](O)CC[C@@](C)(O)[C@@H](OC(=O)N2CCN(C)CC2)/C=C/[C@@H]1C | 35.1% | 1.39 µM | > 10 µM | 1.15 µM
CC(=O)O[C@H]1/C=C/[C@H](C)[C@@H](/C(C)=C/C=C/C(C)c2ccccc2)OC(=O)C[C@H](O)CC[C@@]1(C)O (some centres unmarked) | 12.3% | 0.932 µM | > 10 µM | 0.382 µM
C/C(=C\C=C\[C@@H](C)COC(=O)N1CCCC1)[C@H]1OC(=O)C[C@H](OC(=O)N2CCCC2)CC[C@@](C)(O)[C@@H](OC(=O)N2CCN(C3CCCCCC3)CC2)/C=C/[C@@H]1C |  | 0.0801 µM | > 1 µM | 0.0773 µM
C/C(=C\C=C\CCOC(=O)N1CCCC1)[C@H]1OC(=O)C[C@H](O)CC[C@@](C)(O)[C@@H](OC(=O)N2CCN(C)CC2)/C=C/[C@@H]1C |  | 0.0584 µM | > 5.5 µM | 0.0636 µM
C/C(=C\C=C\[C@@H](C)COC(=O)N1CCc2ccccc21)[C@H]1OC(=O)C[C@H](O)CC[C@@](C)(O)[C@@H](OC(=O)N2CCN(C)CC2)/C=C/[C@@H]1C | -97% | 0.0167 µM | > 1 µM | 0.0198 µM
CC(=O)O[C@H]1/C=C/[C@H](C)[C@@H](/C(C)=C/C=C/[C@@H](C)COC(=O)N2CCSC2)OC(=O)C[C@H](O)CC[C@@]1(C)O |  | 0.068 µM | > 1 µM | 0.0629 µM
C/C(=C\C=C\[C@@H](C)COC(=O)N1CCC[C@H]1C)[C@H]1OC(=O)CCCCC[C@@H](OC(=O)N2CCN(C)CC2)/C=C/[C@@H]1C | -65.3% | 0.00773 µM | 0.681 µM | 0.00344 µM

SMILES | Emax [1] | GI50 [1] | GI50 [2] | GI50 [3]
C/C(=C\C=C\[C@@H](C)COC(=O)N1CC[C@@H](Oc2nnnn2-c2ccccc2)C1)[C@H]1OC(=O)CCCC[C@@](C)(O)[C@@H](OC(=O)N2CCN(C)CC2)/C=C/[C@@H]1C | -94.9% | 0.0373 µM | > 1 µM | 0.0316 µM
C/C(=C\C=C\[C@@H](C)COC(=O)N1CCCC1)[C@H]1OC(=O)CCCCC[C@@H](OC(=O)N2CCN(C3CCCCCC3)CC2)/C=C/[C@@H]1C | -93.3% | 0.17 µM | 0.929 µM | 0.0746 µM
CC(=O)O[C@H]1/C=C/[C@H](C)[C@@H](/C(C)=C/C=C/Cc2ccncc2)OC(=O)C[C@H](O)CC[C@@]1(C)O | 76.5% | > 6.4 µM | > 10 µM | 0.61 µM
C/C(=C\C=C\[C@@H](C)COC(=O)N1CCC2(COC2)C1)[C@H]1OC(=O)C[C@H](O)CC[C@@](C)(O)[C@@H](OC(=O)N2CCN(C3CCCCCC3)CC2)/C=C/[C@@H]1C | -76.4% | 0.00798 µM | 0.603 µM | 0.00639 µM
COC(=O)OC[C@H](C)/C=C/C=C(\C)[C@H]1OC(=O)C[C@H](O)CC[C@@](C)(O)[C@@H](OC(=O)N2CCN(C)CC2)/C=C/[C@@H]1C | -95.9% | 0.00511 µM | > 1 µM | 0.0147 µM
CC(=O)O[C@H]1/C=C/[C@H](C)[C@@H](/C(C)=C/C=C/C(C)(O)CCc2ccccc2)OC(=O)C[C@H](O)CC[C@@]1(C)O (some centres unmarked) | -41.5% | 0.354 µM | > 10 µM | 0.194 µM
C/C(=C\C=C\[C@@H](C)COC(=O)N1CCC[C@H]1CF)[C@H]1OC(=O)C[C@H](O)CC[C@H](C)[C@@H](OC(=O)N2CCN(C3CCCCCC3)CC2)/C=C/[C@@H]1C | -77.7% | 0.00676 µM | > 1 µM | 0.00505 µM
C/C(=C\C=C\[C@@H](C)COC(=O)N1CC[C@@H](C)C1)[C@H]1OC(=O)C[C@H](O)CC[C@@](C)(O)[C@@H](OC(=O)N2CCN(C3CCCCCC3)CC2)/C=C/[C@@H]1C | -86.6% | 0.0012 µM | > 1 µM | 0.00393 µM
COc1cccc(C(C)/C=C/C=C(\C)[C@H]2OC(=O)C[C@H](O)CC[C@@](C)(O)[C@@H](OC(C)=O)/C=C/[C@@H]2C)n1 (some centres unmarked) | -12.7% | 0.554 µM | > 10 µM | 0.282 µM
C/C(=C\C=C\[C@@H](C)c1ccccn1)[C@H]1OC(=O)C[C@H](O)CC[C@@](C)(O)[C@@H](OC(=O)N2CC3CCC(C2)N3C2CCCCCC2)/C=C/[C@@H]1C | -95.7% | 0.065 µM | > 1 µM | 0.052 µM
C/C(=C\C=C\[C@@H](C)COC(=O)N1CCC[C@H]1CF)[C@H]1OC(=O)C[C@H](O)CC[C@H](C)[C@@H](OC(=O)N2CCN(C)CC2)/C=C/[C@@H]1C | -79.1% | 0.000339 µM | > 1 µM | 0.0022 µM
CC(=O)O[C@H]1/C=C/[C@H](C)[C@@H](/C(C)=C/C=C/C(C)CCc2ccccn2)OC(=O)C[C@H](O)CC[C@@]1(C)O (some centres unmarked) | 0.954% | 0.972 µM | > 10 µM | 0.593 µM
C/C(=C\C=C\C(C)c1ccnc(N2CCCC2)n1)[C@H]1OC(=O)C[C@H](O)CC[C@@](C)(O)[C@@H](OC(=O)N2CCN(C3CCCCCC3)CC2)/C=C/[C@@H]1C (some centres unmarked) | -96.6% | 0.147 µM | 4.31 µM | 0.023 µM
C/C(=C\C=C\C(C)c1ncccn1)[C@H]1OC(=O)CCCCC[C@@H](OC(=O)N2CCN(C)CC2)/C=C/[C@@H]1C (some centres unmarked) | -72.6% | 0.0404 µM | > 1 µM | 0.0457 µM
C/C(=C\C=C\[C@@H](C)COC(=O)N1CCCC1)[C@H]1OC(=O)C[C@@H](O)CC[C@@](C)(O)[C@@H](OC(=O)N2CCN(C)CC2)/C=C/[C@@H]1C | -95.4% | 0.0123 µM | > 1 µM | 0.025 µM
C/C(=C\C=C\[C@@H](C)COC(=O)N1CC2CC2C1)[C@H]1OC(=O)C[C@H](O)CC[C@@](C)(O)[C@@H](OC(=O)N2CCN(C3CCCCCC3)CC2)/C=C/[C@@H]1C (some centres unmarked) | -84.2% | 0.0186 µM | > 1 µM | 0.00828 µM
